Laboratory results: patent US20230295229A1, “PEPTIDE SELECTIVELY BINDING TO CANCER CELL-DERIVED EXOSOME, AND USES THEREOF” (KYUNGPOOK NATIONAL UNIVERSITY INDUSTRY-ACADEMIC COOPERATION …, priority 2020, published 2023)

Assays:
[1] = system: exosomes derived from normal HEK293 cells; assay: inhibition of exosome internalization by magnetic removal of peptide-bound exosomes; assay type: cell-based; conditions: exosomes pretreated with biotin-labeled peptide, then removed with magnet
Procedure: In order to further identify the binding specificity of the ExoPep peptide to the A549 cell-derived exosome, the exosomes were labeled with a DID fluorescent dye, reacted with the biotin-labeled ExoPep peptide, and then conjugated with biotin by reacting the labeled avidin with magnetic particles. The complex of exosomes/biotin-peptide/avidin-magnetic particles prepared by the reaction was captured and removed using a magnet, and the remaining exosomes were treated to recipient cells (FIG. 5A).
On the other hand, internalization of exosomes into recipient cells was not reduced by pretreatment with the control peptide (sequence: NSSSVDK) (FIG. 5B). In addition, when a similar experiment was conducted on exosomes derived from normal HEK293 cells, the internalization of exosomes into recipient cells was not inhibited by the ExoPep peptide of an example embodiment of the present disclosure as well as the control peptide (FIG. 5C).

[2] = system: exosomes derived from LLC mouse lung cancer cells; assay: flow cytometry binding of FITC-labeled peptide to exosomes; conditions: 4° C.
Source text: (§1) 5 types of peptides (CTDTKIK, CRLSKKS, CRKVAKG, CRKRPAL, CAVRRKL) were synthesized based on the result of ELISA shown in FIG. 3. In order to investigate the binding of candidate peptides by FACS method, a peptide in which fluorescein isothiocyanate (FITC), a fluorescent substance, is conjugated to the carboxy terminus was synthesized by requesting Peptron Co. (Daegeon, Korea). Each peptide was synthesized by standard Fmoc method and purified by […]. In addition, FITC-labeled NSSSVDK peptide was used as a control.
(§2) In order to observe the peptide binding to the exosomes, biotin and exosomes were first combined in the same manner as described in FIG. 3, and then the exosomes were immobilized by binding with avidin beads. The exosome-bead complex was blocked for non-specific binding through treatment of 1% bovine serum albumin (BSA) dissolved in phosphate buffer for 30 minutes at room temperature. After washing, the FITC-labeled peptide was bound to the exosome-bead complex at 4° C. for 30 minutes. After the reaction, the binding of the peptide to the exosomes was analyzed using a flow cytometer.
(§3) On the other hand, in order to observe the peptide binding to the exosome-producing cells, 1×10^6 cells were first prepared. Each cell medium was treated with 1% BSA at 37° C. for 30 minutes. Thereafter, the FITC-labeled peptide was bound at 4° C. for 1 hour. After the reaction, the binding of the peptide to the cells was analyzed using a flow cytometer.

[3] = system: exosomes derived from HepG2 liver cancer cells; assay: as above; conditions: 4° C.
Source text: as §1, §2, §3

[4] = system: exosomes derived from Panc-1 pancreatic cancer cells; assay: as above; conditions: 4° C.
Source text: as §1, §2, §3

[5] = system: exosomes derived from normal HEK293 cells; assay: as above; conditions: 4° C.
Source text: as §1, §2, §3

[6] = system: exosomes derived from HT-29 colorectal cancer cells; assay: as above; conditions: 4° C.
Source text: as §1, §2, §3

[7] = system: exosomes derived from H460 lung cancer cells; assay: as above; conditions: 4° C.
Source text: as §1, §2, §3

[8] = system: exosomes derived from normal MCF10A cells; assay: as above; conditions: 4° C.
Source text: as §1, §2, §3

[9] = system: exosomes derived from MDA-MB231 breast cancer cells; assay: as above; conditions: 4° C.
Source text: as §1, §2, §3

[10] = system: exosomes derived from A549 lung cancer cells; assay: as above; parameters: species or system human; conditions: 4° C.
Source text: as §1, §2
On the other hand, in order to observe the peptide binding to the exosome-producing cells, 1×10^6 cells were first prepared. […] After the reaction, the binding of the peptide to the cells was analyzed using a flow cytometer.

CRKVAKG [ExoPep]
internalization of exosomes into recipient cells [1]: not inhibited | binding to exosomes compared to exosome-producing cell [2]: very low binding, or no higher binding | binding to exosomes compared to exosome-producing cell [3]: very low binding, or no higher binding | binding to exosomes compared to exosome-producing cell [4]: higher binding | binding to exosomes compared to exosome-producing cell [5]: very low binding, or no higher binding | binding to exosomes compared to exosome-producing cell [6]: very low binding, or no higher binding | binding to exosomes compared to exosome-producing cell [7]: higher binding | binding to exosomes compared to exosome-producing cell [8]: very low binding, or no higher binding | binding to exosomes compared to exosome-producing cell [9]: higher binding | binding to exosomes compared to exosome-producing cell [10]: higher binding
